Where two headings read alike, the source gives them in different places.

We go through three compounds from patent US20260258051A1, “Camptothecin Compound, Preparation Method Therefor and Use Thereof” (SICHUAN KELUN-BIOTECH BIOPHARMACEUTICAL CO., LTD., priority 2022, published 2026).

One series concerns HCC1806 cells. Nature of the series: Inhibitory effect on HCC1806 cell proliferation. Format: cell-based. The note with it: Homo sapiens; HCC1806, 72 h incubation, Cell Counting-Lite 2.0. How it is done: (1) Cell plating: First, tumor cells HCC1806 were cultured with corresponding culture medium, the cells were digested with trypsin and centrifuged, then the cells were resuspended and counted, and the cells were adjusted to an appropriate concentration for plating.
(§1) Co-incubation of the compounds of the present invention and tumor cells: 90 μL of cell suspension was added to 96-well plates respectively. After cell adherence, 10 μL of bioactive molecules (compounds of the present invention) diluted with culture medium were added into the wells of the above plates, and incubated for 72 h.
(§2) In vitro cell viability detection: After the incubation, 50 μL of Cell Counting-Lite™ 2.0 reagent (Vazyme) was added to each well, shaken and mixed well in the dark, and reacted for 10 minutes before testing. Microplate reader (manufacturer: BMG, Model: PHERA Star-FS) was used for reading. The culture wells without cells were used as the background RLU, and the culture wells with cells but no compound were used as the cell control RLU. Cell inhibition rate=1−(sample RLU−background RLU)/(cell control RLU−background RLU)×100%. The half-inhibition concentration (IC50) of compound was calculated by fitting the curve according to the four-parameter model.

For a further series, the system named is NCI-N87 cells. Nature of the series: Inhibitory effect on NCI-N87 cell proliferation. Particulars: Homo sapiens, NCI-N87, 72 h, read-out: IC50 (nM), inhibitory activity on NCI-N87 cell proliferation. Format: cell-based. The protocol:
(1) Cell plating: First, tumor cells NCI-N87 were cultured with corresponding culture medium, the cells were digested with trypsin and centrifuged, then the cells were resuspended and counted, and the cells were adjusted to an appropriate concentration for plating.
as §1, §2

The subject of another series is MDCK cells. The series is described as follows: Permeability test in MDCK cell model. Format: in vitro ADME. The protocol:
(§3) The MDCK cell model was used to evaluate the permeability of the compounds, the LC-MS/MS method was used to determine the concentration of the substance to be tested, and the apparent permeability coefficient (Papp) and efflux ratio were calculated [Efflux ratio=Papp(B→A)/Papp(A→B)].
(§4) Complete culture medium: 10% fetal bovine serum and 1% penicillin/streptomycin were added to MEM culture medium.
(§5) Digestive solution: 0.05% trypsin-EDTA.
(§6) HBSS buffer: HBSS containing Ca^2+, Mg^2+.
(§7) Permeating solution: HBSS containing 10 mM Hepes, 4% BSA, pH 7.4.
(§8) Compound stock solution: a certain amount of the compound to be tested was weighed and formulated with DMSO to prepare a 10 mM stock solution.
(§9) MDCK cells (26th generation) in the logarithmic growth phase were digested and dispersed evenly with 0.05% trypsin-EDTA, and then inoculated into the Transwell chamber at 3*10^5 cells/cm^2, with 200 μL on the A side and 1000 μL on the B side. After inoculation, the medium was changed once every day and the culturing was carried out for 3 to 4 days.
(§10) The cell culture medium was discarded by pipetting, then washing was carried out three times with the permeating solution. 200 μL of permeating solution was added to A side and 1000 μL of permeating solution was added to B side. A voltage resistance meter was used to measure the cell transmembrane resistance (TEER). After the TEER value of the cells was measured, the permeating solution on both sides was discarded by pipetting, and the solution was added. After 120 minutes, 150 μL of samples were taken from A side and B side, respectively, and frozen at −80° C. before testing. Then, 10 μg/ml Fluorescent Yellow was added to A side. After incubation for 30 minutes, 100 μL of solution at B side was pipetted and added into a 96-well white plate. The fluorescence value was measured at the wavelengths of Ex=485 nm and Em=530 nm using a microplate reader, and the permeance was calculated (which was less than 1%).
(§11) 80 μL of the compound to be tested was taken, added to 320 μL of acetonitrile solution containing internal standard (30 ng/mL Tolbutamide), vortexed, and centrifuged for 10 min (4000 rpm, 4° C.), and the supernatant was taken for LC-MS/MS analysis.
(§12) Excel 2013 was used to calculate Papp values and Papp ratio of B side→A side to A side→B side, and the recovery rates of each Control Compound and the compound to be tested were calculated.
(§13) Apparent permeability coefficient (Papp) of compound was calculated according to the following formula:
(§14) C0 was the initial concentration (μM) of the drug to be tested at the donor, (dCr/dt)×Vr was the rate (μM/s) at which the drug to be tested appeared at the receiver, Vr was the solution volume (mL) at the receiver, and A was the surface area (cm^2) of polycarbonate membrane.
(§15) Evaluation criteria: Low permeability: Papp≤0.5 (×10^−6 cm/s) • Medium permeability: 0.5<Papp<2.5 (×10^−6 cm/s) • High permeability: Papp≥2.5 (×10^−6 cm/s)
(§16) Efflux ratio (ER) was calculated according to Papp:
(§17) [formula] • wherein, Papp(B→A) was the apparent permeability coefficient of the drug to be tested from the BL (baso-lateral) end to the AP (apical) end, and Papp (A→B) was the apparent permeability coefficient of the drug to be tested from the AP end to the BL end.
(§18) • Probably being an efflux transporter substrate (Probably): ERa≥2 and ERa/ERi>2 • Likely being an efflux transporter substrate (Likely): ERa≥2 • Unlikely or impossibly being an efflux transporter substrate (Poor or non): ERa<2 • wherein, ERi and ERa were the efflux ratios of the compound to be tested in the presence and absence of P-gp inhibitor, respectively.

Series [1] in a line: Permeability test in MDCK cell model. Format: in vitro ADME. The note with it: dog; for efflux ratio at 120 min, 2 μM: pH 7.4, 2.00 μM, Papp(B→A)/Papp(A→B), absence of P-gp inhibitor, read-out: Efflux ratio (ERa). The protocol: as §3, §4, §5, §6, §7, §8, §9, §10, §11, §12, §13, §14, §15, §16, §17, §18
The test system of another series is MDA-MB-231 cells. The series is described as follows: Inhibitory effect on MDA-MB-231 cell proliferation. Format: cell-based. Particulars: Homo sapiens; MDA-MB-231, 72 h incubation, Cell Counting-Lite 2.0. The protocol: (1) Cell plating: First, tumor cells MDA-MB-231 were cultured with corresponding culture medium, the cells were digested with trypsin and centrifuged, then the cells were resuspended and counted, and the cells were adjusted to an appropriate concentration for plating.
as §1, §2

For another series, the system named is Jeko-1 cells. The series is described as follows: Inhibitory effect on Jeko-1 cell proliferation. Format: cell-based. The note with it: Homo sapiens; Jeko-1, 72 h incubation, Cell Counting-Lite 2.0. The protocol: (1) Cell plating: First, tumor cells Jeko-1 were cultured with corresponding culture medium, the cells were resuspended and counted, and finally the cells were adjusted to an appropriate concentration for plating.
as §1, §2

The next series concerns MDA-MB-453 cells. The series is described as follows: Inhibitory effect on MDA-MB-453 cell proliferation. Format: cell-based. The note with it: Homo sapiens; MDA-MB-453, 72 h incubation, Cell Counting-Lite 2.0. How it is done: (1) Cell plating: First, tumor cells MDA-MB-453 were cultured with corresponding culture medium, the cells were digested with trypsin and centrifuged, then the cells were resuspended and counted, and the cells were adjusted to an appropriate concentration for plating.
as §1, §2

A further series has as its system NCI-H358 cells. Nature of the series: Inhibitory effect on NCI-H358 cell proliferation. Format: cell-based. The note with it: Homo sapiens; NCI-H358, 72 h incubation, Cell Counting-Lite 2.0. How it is done:
(1) Cell plating: First, tumor cells NCI-H358 were cultured with corresponding culture medium, the cells were digested with trypsin and centrifuged, then the cells were resuspended and counted, and the cells were adjusted to an appropriate concentration for plating.
as §1, §2

The test system of a further series is HT29 cells. The series is described as follows: Inhibitory effect on HT29 cell proliferation. Format: cell-based. The note with it: Homo sapiens, HT-29; HT29, 72 h incubation, Cell Counting-Lite 2.0. The protocol:
(1) Cell plating: First, tumor cells HT29 were cultured with corresponding culture medium, the cells were digested with trypsin and centrifuged, then the cells were resuspended and counted, and the cells were adjusted to an appropriate concentration for plating.
as §1, §2

Series [2] can be described thus: Liver microsome stability test (human). Particulars: human liver microsomes 0.5 mg/ml, 1 μM, 15 min, NADPH. Format: in vitro ADME. How it is done: (§19) Liver microsomes were used as an in vitro model to evaluate the metabolic stability of compounds in human and monkey liver microsomes.
Mixed human liver microsomes: Xenotech, USA
(§20) The positive compound testosterone or the tested substance (liver microsome solution, 50 μL) was mixed with PBS (25 μL). After pre-incubation (37° C.) for 5 min, NADPH (25 μL) was added to make the final concentration of the positive compound or the tested substance 1 μM, the final concentration of human liver microsomal protein was 0.5 mg/ml, the final concentration of monkey liver microsomal protein was 1 mg/ml, the tested substance group and the positive compound group were incubated for 0 min, 15 min. After being reacted for corresponding time, 300 μL of ice-cold acetonitrile containing internal standard was added to terminate the reaction, vortexed, and stored at −80° C. for later analysis. All incubated samples were double samples.
(§21) The tested compound was vortexed for 1 min, and centrifuged for 10 min (4° C., 4000 rpm), and 300 μL of the supernatant was taken for LC-MS/MS analysis.
(§22) Excel software was used to calculate the remaining rate (%) of the drug in primary form in the incubation system: […]
(Liver microsomes are vesicles of endoplasmic reticulum, rich in cytochrome P450 enzymes.)

Series [3] in a line: Liver microsome stability test (monkey). Particulars: monkey liver microsomes 1 mg/ml, 1 μM, 15 min, NADPH. Format: in vitro ADME, cynomolgus. The protocol: as §19
Mixed male cynomolgus liver microsomes: RILD, China
as §20, §21, §22

The Papp A→B is the apparent permeability from the apical to the basolateral side of a cell layer. The term Papp B→A denotes the apparent permeability from the basolateral to the apical side of a cell layer. Regarding `CC[C@@]1(O)C(=O)OCc2c1cc1n(c2=O)Cc2c-1nc1cc(F)c(Cl)cc1c2CNC(=O)CO` [Compound 2-1, (S)—N-((9-chloro-4-ethyl-8-fluoro-4-hydroxy-3,14-dioxy-3,4,12,14-tetrahydro-1H-pyrano[3′,4′:6,7]indolizino[1,2-b]quinolin-11-yl)methyl)-2-hydroxyacetamide], the IC50 in the series with HCC1806 cells was 8.08 nM; in the series with NCI-N87 cells, 81.6 nM; with MDA-MB-231 cells, 38.5 nM; in the series on Jeko-1 cells, 1.62 nM; with MDA-MB-453 cells, 156 nM; in the series on NCI-H358 cells, 121 nM. The same compound had an IC50 in the series with HT29 cells of 14.6 nM. For the same compound, in the series with MDCK cells, the “Permeability class according to the Papp(A→B) results” value is listed as “medium-permeability”. For the same compound, the “Efflux transporter substrate evaluation from efflux ratio” value with MDCK cells (2.00 μM) is “not efflux transporter substrates or were weak efflux transporter substrates”. This compound displayed a Papp A→B at 120 min, 2 μM in series [1] (pH 7.4) of 0.52 ×10⁻⁶ cm/s. In series [1] (pH 7.4), this compound yielded a Papp B→A at 120 min, 2 μM of 0.42 ×10⁻⁶ cm/s. Moreover, the efflux ratio at 120 min, 2 μM in series [1] was found to be 0.81.

With `CC[C@@]1(O)C(=O)OCc2c1cc1n(c2=O)Cc2c-1nc1cc(F)c(C)c3c1c2[C@@H](NC(N)=O)CC3` [Compound 7-2, 1-((1S,9S)-9-ethyl-5-fluoro-9-hydroxy-4-methyl-10,13-dioxy-2,3,9,10,13,15-hexahydro-1H,12H-benzo[de]pyrano[3′,4′:6,7]indolizino[1,2-b]quinolin-1-yl)urea], the IC50 turned out to be 18.6 nM with HCC1806 cells; 80.8 nM in the series on NCI-N87 cells; 30.6 nM with MDA-MB-231 cells; 2.17 nM in the series with Jeko-1 cells; 203 nM with MDA-MB-453 cells; 287 nM with NCI-H358 cells. Moreover, the IC50 in the series on HT29 cells is 22.8 nM.

`CC[C@@]1(O)C(=O)OCc2c1cc1n(c2=O)Cc2c-1nc1cc(F)c(C)c3c1c2[C@@H](NC(=O)C[C@H](C)O)CC3` [Control Compound 4, reference compound]: in the series with MDCK cells (2.00 μM), the “Efflux transporter substrate evaluation from efflux ratio” value is recorded as “could be efflux transporter substrates” and the “Permeability class according to the Papp(A→B) results” value is “low-permeability”. Further, the efflux ratio at 120 min, 2 μM in [1] is 21.7. For the same compound, the Papp A→B at 120 min, 2 μM in [1] (pH 7.4, concentration 2.00 μM, 120 minutes, A to B, read-out: Papp A to B) came out at 0.24 ×10⁻⁶ cm/s. In addition, in series [1] (pH 7.4, concentration 2.00 μM, 120 minutes, B to A, read-out: Papp B to A), the Papp B→A at 120 min, 2 μM is 5.25 ×10⁻⁶ cm/s. In addition, the “Remaining rate (%) Human” value in series [2] worked out at 64.6%. Moreover, the “Remaining rate (%) Monkey” value in series [3] is recorded as 65.1%.
